# From ChEMBL document CHEMBL3826955, “Steric structure-activity relationship of cyproheptadine derivatives as inhibitors of histone methyltransferase Set7/9” (Bioorg Med Chem, 2016)
# pIC50: −log10 of the molar value.
# Target: T1, Histone-lysine N-methyltransferase SETD7 (Homo sapiens, UniProt Q8WTS6)
# T1 sequence (Q8WTS6 whole entry): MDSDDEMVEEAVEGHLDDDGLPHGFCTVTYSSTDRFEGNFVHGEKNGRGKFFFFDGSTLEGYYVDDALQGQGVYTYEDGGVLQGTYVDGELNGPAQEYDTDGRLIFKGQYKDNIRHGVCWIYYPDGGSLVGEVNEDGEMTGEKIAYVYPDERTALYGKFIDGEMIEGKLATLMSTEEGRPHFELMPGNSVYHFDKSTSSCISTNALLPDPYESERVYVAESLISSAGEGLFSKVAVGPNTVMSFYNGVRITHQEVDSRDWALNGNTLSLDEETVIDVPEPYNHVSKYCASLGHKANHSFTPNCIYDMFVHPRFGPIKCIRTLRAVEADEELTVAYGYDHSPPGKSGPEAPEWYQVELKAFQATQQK
# Assay: Inhibition of recombinant SET7/9 (unknown origin) using biotinylated histone H3-derived peptide/SAM as substrate after 60 mins by AlphaLISA assay
row,Compound,pIC50
1,CN1CCN(C2c3ccccc3C=Cc3ccccc32)CC1,< 4.00
2,CN1CCN(C2c3ccccc3Oc3ccccc32)CC1,< 4.00
3,CN1CCC(OC2c3ccccc3Sc3ccccc32)CC1,< 4.00
4,CN1CCC(=C2c3ccccc3C=Cc3ccccc32)CC1 [CYPROHEPTADINE],5.47
5,CN1CCC(OC2c3ccccc3Oc3ccccc32)CC1,< 4.00
6,CN1CCN(C2c3ccccc3Sc3ccccc32)CC1,< 4.00

# Second part, the compound after the results:
row,pIC50,Compound
1,5.37,CN1CCC(=C2c3ccccc3Sc3ccccc32)CC1 [PIMETHIXENE]
2,< 4.00,CN1CCC(OC2c3ccccc3C=Cc3ccccc32)CC1
